Laboratory results reported in BigSolDB 2.1.

CS(=O)(=O)OCCCCOS(C)(=O)=O
solubility (mole fraction)
Settings | 278.15 K | 283.15 K | 288.15 K | 293.15 K | 298.15 K | 303.15 K | 308.15 K | 313.15 K | 318.15 K | 323.15 K
in 2-butoxyethanol | 0.000161 | 0.000208 | 0.000261 | 0.000332 | 0.000417 | 0.000522 | 0.00066 | 0.000811 | 0.00102 | 0.00124
in 2-ethoxyethanol | 0.000166 | 0.000255 | 0.000389 | 0.000587 | 0.000857 | 0.00128 | 0.00179 | 0.00259 | 0.00367 | 0.00511
in 2-methoxyethanol | 0.000446 | 0.000675 | 0.00104 | 0.00149 | 0.0022 | 0.00311 | 0.00438 | 0.00609 | 0.0085 | 0.0118
in 2-propoxyethanol | 0.000168 | 0.000221 | 0.00031 | 0.000398 | 0.00053 | 0.000693 | 0.000905 | 0.00118 | 0.00155 | 0.00196
in DMF | 0.0116 | 0.0151 | 0.0194 | 0.0248 | 0.0317 | 0.0397 | 0.0495 | 0.0611 | 0.076 | 0.0929
in DMSO | – | – | – | – | 0.0367 | 0.0459 | 0.0567 | 0.0695 | 0.0851 | 0.103
in NMP | 0.0172 | 0.0215 | 0.0266 | 0.0328 | 0.0401 | 0.0487 | 0.059 | 0.0713 | 0.0853 | 0.102
in ethanol | 1.55e-05 | 2.49e-05 | 3.95e-05 | 6.08e-05 | 9.34e-05 | 0.000142 | 0.000211 | 0.000315 | 0.00046 | 0.000655
in ethyl acetate | 0.000385 | 0.000575 | 0.00081 | 0.00112 | 0.0016 | 0.00209 | 0.00287 | 0.0038 | 0.00525 | 0.00705
in methanol | 4.32e-05 | 6.97e-05 | 0.000107 | 0.000167 | 0.000251 | 0.000379 | 0.000555 | 0.000813 | 0.00119 | 0.00169
in methyl acetate | 0.000892 | 0.00109 | 0.00179 | 0.00248 | 0.00323 | 0.0045 | 0.00592 | 0.008 | 0.0107 | 0.0145
in n-butanol | 6.8e-06 | 1.09e-05 | 1.72e-05 | 2.66e-05 | 4.22e-05 | 6.35e-05 | 9.25e-05 | 0.000135 | 0.000191 | 0.000276
in n-butyl acetate | 0.000209 | 0.000289 | 0.000402 | 0.000549 | 0.000785 | 0.000962 | 0.00122 | 0.00175 | 0.00218 | 0.00281
in n-propanol | 4.5e-06 | 8e-06 | 1.43e-05 | 2.4e-05 | 4.05e-05 | 6.68e-05 | 0.000107 | 0.000173 | 0.000277 | 0.000444
in n-propyl acetate | 0.00016 | 0.000298 | 0.000468 | 0.000649 | 0.00101 | 0.00137 | 0.00195 | 0.00272 | 0.00386 | 0.00531
